Measurements taken from patent US20250275959A1, “COMPOUNDS AND METHODS OF THEIR USE” (LEXICON PHARMACEUTICALS, INC., priority 2024, published 2025).
“Also recorded” adds a separate entry of the source.

Experiment: Murine diet-induced obesity (DIO) model, Compound A study
Type: in vivo, C57BL/6J mice
Details: DIO mice
Protocol: The effects of four representative compounds of the invention were tested in a mouse model of diet-induced obesity (DIO): • Compound A is (R)—N-(tert-butylsulfonyl)-4-(1-(5-(pyridin-3-yloxy)pyridin-2-yl)ethoxy)-3-(trifluoromethyl)benzamide; • Compound B is (R)-4-(1-(5-(cyclopropylmethoxy)pyridin-2-yl)propoxy)-N-((4-(2-(dimethylamino)ethoxy)phenyl)sulfonyl)-2,3-difluorobenzamide; • Compound C is (R)—N-((4-(2-(dimethylamino)ethoxy)piperidin-1l-yl)sulfonyl)-2,3-difluoro-4-(1-(5-(pyridin-2-yloxy)pyridin-2-yl)propoxy)benzamide; and • Compound D is (R)-2,3-difluoro-N-((4-methylpiperazin-1-yl)sulfonyl)-4-(1-(5-(pyridin-2-yloxy)pyridin-2-yl)propoxy)benzamide.
The mice used in these experiments were C57BL/6J mice fed a high-fat diet (D12492 from Research Diets) ad libitum during the study period. The vehicle and test article formulations were 10% w/v Solutol in water.
After a seven-day acclimation period, the DIO model was induced by putting the mice on a high fat diet for ten weeks. After the ten weeks, the DIO mice were equally divided into groups based on body weight, ten mice in each group: the control group (Vehicle) and Compound A at 30 mg/kg.
The animals were pre-dosed for two days prior to formal dosing (once-per-day treatment for every group). From Day 1 to Day 13, the animals in the dosing group were administered orally by gavage at 5:00 p.m. every day as well as weight and food intake were recorded daily. All animals were fasted overnight after dosing on Day 1, Day 4, Day 12 and Day 13, then the blood (retro-orbital bleed) of mice from each group was collected at 7:00 a.m. to separate out the serum on Day 2, Day 5 and Day 13 for measuring total cholesterol levels (TC), triglyceride (TG), aminotransferase alanine (ALT), aspartate aminotransferase (AST) and total bilirubin (TBil) levels. All animals were performed OGTT test (0 min, 30 min, 60 min and 120 min) and measured insulin levels (0 min and 30 min) on Day 14.
• 1. Body weight and Food Consumption: Pre-dose every day starting from Day −1 onwards. • 2. Day −1 and Day 0: Handle mice and gavage with vehicle. • 3. Day 1: Dose˜5:00 PM. Fast overnight. • 4. Day 2: Determine total cholesterol levels and triglyceride, ALT, AST, Total Bilirubin levels 7:00 AM. Resume feeding. • 5. Day 2-3: Dose˜5:00 PM. • 6. Day 4: Dose˜5:00 PM. Fast overnight. • 7. Day 5: Determine total cholesterol levels and triglyceride, ALT, AST, Total Bilirubin levels˜7:00 AM. Resume feeding. • 8. Day 5˜11: Dose˜5:00 PM. • 9. Day 12: Dose˜5:00 PM. Fast overnight. • 10. Day 13: Determine total cholesterol levels and triglyceride, ALT, AST, Total Bilirubin levels 7:00 AM. Resume feeding. • 11. Day 13: Dose˜5:00 PM. Fast overnight. • 12. Day 14: (No drug administration) Oral glucose tolerance test with glucose levels measured at Pre-dose, 30 min, 60 min and 120 min. And insulin levels at Time 0 min, 30 min after the glucose challenge.
Data was provided as mean±SD. Statistical significance was considered when the P value is less than 0.05. Results were analyzed by SPSS software. […]. T-test was used to calculate P value. […]

C[C@@H](Oc1ccc(C(=O)NS(=O)(=O)C(C)(C)C)cc1C(F)(F)F)c1ccc(Oc2cccnc2)cn1 [Compound A, (R)—N-(tert-butylsulfonyl)-4-(1-(5-(pyridin-3-yloxy)pyridin-2-yl)ethoxy)-3-(trifluoromethyl)benzamide]
Body Weight (g)/Day (30 mg/kg oral daily, Day 1): 37.9 ± 1.4 g
Body Weight (g)/Day (30 mg/kg oral daily, Day 2): 36.6 ± 1.4 g
Body Weight (g)/Day (30 mg/kg oral daily, Day 3): 35.8 ± 1.5 g
Body Weight (g)/Day (30 mg/kg oral daily, Day 4): 35.3 ± 1.4 g
Body Weight (g)/Day (30 mg/kg oral daily, Day 5): 34.3 ± 1.3 g
Body Weight (g)/Day (30 mg/kg oral daily, Day 6): 34.2 ± 1.2 g
Body Weight (g)/Day (30 mg/kg oral daily, Day 7): 34.0 ± 1.3 g
Body Weight (g)/Day (30 mg/kg oral daily, Day 8): 33.9 ± 1.4 g
Body Weight (g)/Day (30 mg/kg oral daily, Day 9): 33.5 ± 1.4 g
Body Weight (g)/Day (30 mg/kg oral daily, Day 10): 33.4 ± 1.3 g
Body Weight (g)/Day (30 mg/kg oral daily, Day 11): 32.9 ± 1.4 g
Body Weight (g)/Day (30 mg/kg oral daily, Day 12): 32.8 ± 1.3 g
mean body weight versus control group (30 mg/kg oral daily, Day −1 to Day 12): significantly lower than that of the control group from Day 8 onwards; also recorded: statistically significant effect on the mice's body weights versus control
Body Weight (g)/Day (30 mg/kg, Day 0 (pre-dose)): 38.3 ± 1.4 g
Body Weight (g)/Day (30 mg/kg, Day −1 (pre-dose)): 38.5 ± 1.6 g
